The subject of one assay is Filaggrin. Description: Co-immunofluorescence staining of filaggrin in SPINK7-depleted EPC2 cells. It counts as cell-based, human. Particulars: following ALI differentiation. How it is done:
(§1) FIG. 12A is a bar graph showing FPKM values of uPA in the esophagus of EoE patients and controls. FIG. 12B is a bar graph showing analysis of the uPA proteolytic activity (active units—AU) in esophageal biopsies from 6 normal and 6 EoE patients. […] FIG. 12D is a bar graph showing quantification of trypsin-like activity in supernatants derived from NSC or SPINK7-depleted EPC2 cells that were treated with A1AT or a vehicle following ALI differentiation. FIG. 12E are electrical resistance measurements of NSC or SPINK7-depleted EPC2 cells that were treated with A1AT or a vehicle during ALI differentiation (Day 7). FIG. 12F are H&E staining images of NSC or SPINK7-depleted EPC2 cells that were treated with A1AT or a vehicle after ALI differentiation (Day 14)-add. FIG. 12G are images of co-immunofluorescence staining of E-cadherin and Filaggrin of NSC or SPINK7-depleted EPC2 cells that were treated with A1AT or a vehicle following ALI differentiation.
(§2) To extend the potential benefit of A1AT, its ability to restore the epithelial changes induced by SPINK7 loss was […]. […] Consistent with these findings, A1AT administration increased filaggrin expression (FIG. 12G)

Assay [1] relates to serine proteinases with trypsin-like activity. Description: Trypsin-like / proteolytic activity in supernatants of SPINK7-depleted EPC2 cells. It counts as cell-based, human. Particulars: following ALI differentiation. How it is done: (§3) FIG. 10A is a bar graph showing quantification of uPA activity in supernatants derived from (NSC) or SPINK7-depleted EPC2 cells following during ALI differentiation (day 7-9). FIG. 10B is a bar graph showing quantification of the activity of serine proteinases with trypsin-like activity in supernatants derived from (NSC) or SPINK7-depleted EPC2 cells and primary esophageal cells following ALI differentiation. Proteinase activity in the supernatants is calculated as nM concentrations according to standard dilutions of recombinant hKLK5. In vitro activity assays of KLK5 (FIG. 10C) KLK7 (FIG. 10D) and KLK11 (FIG. 10E) in the presence of the indicated concentrations of SPINK7. Data are represented as the mean±s.e.m.
FIG. 12A is a bar graph showing FPKM values of uPA in the esophagus of EoE patients and controls. FIG. 12B is a bar graph showing analysis of the uPA proteolytic activity (active units—AU) in esophageal biopsies from 6 normal and 6 EoE patients. […] FIG. 12D is a bar graph showing quantification of trypsin-like activity in supernatants derived from NSC or SPINK7-depleted EPC2 cells that were treated with A1AT or a vehicle following ALI differentiation. […]
The known SPINK7 target uPA (Cheng, X., Lu, S. H. & Cui, Y. Cancer letters 290, 87-95 (2010), and Huang, G. et al. Carcinogenesis 28, 2274-2281(2007)) was analyzed. […]

For assay [2], the system named is SPINK7-depleted EPC2 cells. Description: Barrier function (electrical resistance) of SPINK7-depleted EPC2 cells during ALI differentiation. In kind it is cell-based, human. The settings on record: treated with A1AT during ALI differentiation, Day 7. How it is done:
as §1
Paracellular and transcellular permeability of the ALI cultured cells were analyzed. […] Transepithelial electrical resistance (A) was measured from NSC and SPINK7-depleted EPC2 cells measured at day 7 and 8 during ALI differentiation (data not shown; data were representative of four experiments performed in triplicate and are represented as the mean±Sd). […]

For assay [3], the system named is SPINK7-depleted EPC2 cells. The assay is described as follows: H&E staining of SPINK7-depleted EPC2 cells after ALI differentiation (epithelial integrity). Particulars: ALI differentiation Day 14. In kind it is cell-based, human. How it is done: as §1, §2
The target of assay [4] is T1, KLK5 (Homo sapiens, UniProt Q9Y337).
T1 sequence (Q9Y337 23-293): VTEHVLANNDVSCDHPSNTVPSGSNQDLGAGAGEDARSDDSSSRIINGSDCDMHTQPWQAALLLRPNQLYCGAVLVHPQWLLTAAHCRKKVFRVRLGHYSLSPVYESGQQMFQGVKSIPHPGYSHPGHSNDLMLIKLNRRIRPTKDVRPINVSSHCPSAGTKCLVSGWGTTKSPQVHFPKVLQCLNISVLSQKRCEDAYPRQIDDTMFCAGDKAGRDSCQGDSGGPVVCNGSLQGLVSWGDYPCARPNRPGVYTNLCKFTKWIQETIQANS
Description: Inhibition of KLK5 by organic compounds (dose response). In kind it is biochemical. How it is done:
FIGS. 14A-14B show the effect of organic compounds on KLK5 activity. FIG. 14A is a dose response curve for 3-(3-chlorophenyl) carboxy-7-hydroxymethyl coumarin. FIG. 14B is a dose response curve for 3-carboxy-7-hydroxymethyl coumarin.
Two organic compounds were tested for their inhibition of KLK5.

Another assay addresses uPA (Homo sapiens, UniProt P00749). Description: uPA proteolytic activity inhibition by SPINK7. The settings on record: data not shown. It counts as biochemical. How it is done: The known SPINK7 target uPA (Cheng, X., Lu, S. H. & Cui, Y. Cancer letters 290, 87-95 (2010), and Huang, G. et al. Carcinogenesis 28, 2274-2281(2007)) was analyzed. […] An increased proteolytic activity using the broad trypsin-like activity substrate Val-Pro-Arg (FIG. 10B) was observed.

A further assay has as its target T2, KLK11 (Homo sapiens, UniProt Q9UBX7).
T2 sequence (Q9UBX7 54-282): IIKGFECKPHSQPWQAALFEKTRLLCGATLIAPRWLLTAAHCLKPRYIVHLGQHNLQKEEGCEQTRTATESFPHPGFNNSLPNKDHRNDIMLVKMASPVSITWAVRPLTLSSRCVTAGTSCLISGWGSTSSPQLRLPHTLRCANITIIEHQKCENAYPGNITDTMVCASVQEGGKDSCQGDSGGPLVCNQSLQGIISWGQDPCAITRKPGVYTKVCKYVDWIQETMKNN
The assay is described as follows: In vitro KLK11 activity assay in the presence of SPINK7. It counts as biochemical. How it is done: as §3

Assay [5] concerns the target T1, KLK5. Description: In vitro KLK5 activity assay in the presence of SPINK7. It counts as biochemical. How it is done:
as §3

For a further assay, the target named is KLK7 (Homo sapiens, UniProt P49862). The assay is described as follows: In vitro KLK7 activity assay in the presence of SPINK7. In kind it is biochemical. How it is done: as §3
KLK7, sequence (P49862 30-253): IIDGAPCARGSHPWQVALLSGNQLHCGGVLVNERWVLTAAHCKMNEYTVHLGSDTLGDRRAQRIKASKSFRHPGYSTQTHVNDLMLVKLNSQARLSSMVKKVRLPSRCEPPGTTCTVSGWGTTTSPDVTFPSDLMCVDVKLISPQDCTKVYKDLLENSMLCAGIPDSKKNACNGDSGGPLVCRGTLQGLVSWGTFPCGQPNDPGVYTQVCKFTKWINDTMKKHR

“Also recorded” adds a separate entry of the source.

As to “A1AT: serine proteinase inhibitor alpha-1 anti-trypsin, administered to SPINK7-silenced cells [Compound A1AT]”, in the assay on Filaggrin, the filaggrin expression entry is reported as “increased”. Also, the “trypsin-like activity of supernatant of SPINK7 silenced cells” value in [1] was “inhibited”. Also, in [2], the “barrier function (electrical resistance)” value is recorded as “dose-dependent ability to improve barrier function”. In addition, the “epithelial integrity (inter-cellular spaces)” value in [3] was “decreased inter-cellular spaces”.
As for “3-(3-chlorophenyl) carboxy-7-hydroxymethyl coumarin [Compound I]”, on KLK5 [4], the half-maximal inhibitory concentration (IC50) was determined as 52000 ± 12000 nM and the “type of KLK5 inhibition (reversibility)” value is listed as “non reversible inhibitors”.
Taken in the same sequence, the figures for `O=C(O)c1cc2ccc(CO)cc2oc1=O` [Compound II, 3-carboxy-7-hydroxymethyl coumarin] were 83 ± 8 nM and “non reversible inhibitors”.

B1: SPINK7: serine proteinase inhibitor kazal-type 7 protein, tested in vitro against KLK5, KLK7, KLK11 and uPA (protein, UniProt P58062 20-85, looked up)
Serine protease inhibitor …: SEAASLSPKKVDCSIYKKYPVVAIPCPITYLPVCGSDYITYGNECHLCTESLKSNGRVQFLHDGSC
Consider B1, for which the “inhibition of uPA proteolytic activity” value with uPA was “directly inhibited”. Besides, in the assay with KLK11, the “inhibition of KLK11” value was “did not inhibit”. Moreover, in the assay with KLK5 [5] (in vitro), the “inhibition of KLK5 proteolytic activity” value is on record as “inhibited”. Moreover, the Ki in the assay with KLK5 [5] (mean±SD, dose-dependent, read-out: Ki, inhibition of KLK5 proteolytic activity) was 132 ± 108 nM. For the same molecule, in the assay with KLK7, the “inhibition of KLK7” value is listed as “did not inhibit; also recorded: not KLK7”.

In general, IC50 refers to the concentration that gives 50% inhibition. Usually Ki stands for a measure of affinity in units of concentration, obtained from inhibition or displacement.
